Reference: ChEMBL document CHEMBL3585245, “Synthesis and antiproliferative evaluation of 9-methoxy-6-(piperazin-1-yl)-11H-indeno[1,2-c]quinoline-11-one derivatives. Part 4” (Medchemcomm, 2014)

System: Detroit 551
Assay: Antiproliferative activity against human Detroit 551 cells incubated for 72 hrs by MTT assay
Type: functional, cell-based
Details: Detroit 551, 72 h

Row | SMILES | IC50 [µM]
1 | COc1ccc2c(c1)C(=O)c1c-2c(N2CCN(C(=O)CCN3CCNCC3)CC2)nc2ccccc12 | 3.35
2 | COc1ccc2c(c1)C(=O)c1c-2c(N2CCN(C(=O)CCNCCN(C)C)CC2)nc2ccccc12 | 2.53
3 | COc1ccc2c(c1)/C(=N\OCC(O)CN(C)C)c1c-2c(N2CCN(CC(O)CN(C)C)CC2)nc2ccccc12 (centres undefined) | 2.05

System: not listed separately
Assay: Antiproliferative activity against human 786-O cells incubated for 72 hrs by MTT assay
Type: functional, cell-based
Details: 786-0, 72 h

Row | SMILES | IC50 [µM]
4 | COc1ccc2c(c1)C(=O)c1c-2c(N2CCN(C(=O)CCN3CCNCC3)CC2)nc2ccccc12 | 1.5
5 | COc1ccc2c(c1)C(=O)c1c-2c(N2CCN(C(=O)CCNCCN(C)C)CC2)nc2ccccc12 | 7.03
6 | COc1ccc2c(c1)/C(=N\OCC(O)CN(C)C)c1c-2c(N2CCN(CC(O)CN(C)C)CC2)nc2ccccc12 (centres undefined) | 13.9

System: HeLa
Assay: Antiproliferative activity against human HeLa cells incubated for 72 hrs by MTT assay
Type: functional, cell-based
Details: not given

Row | IC50 [µM] | SMILES
7 | 4.71 | COc1ccc2c(c1)C(=O)c1c-2c(N2CCN(C(=O)CCN3CCNCC3)CC2)nc2ccccc12
8 | 4.78 | COc1ccc2c(c1)C(=O)c1c-2c(N2CCN(C(=O)CCNCCN(C)C)CC2)nc2ccccc12
9 | 0.98 | COc1ccc2c(c1)/C(=N\OCC(O)CN(C)C)c1c-2c(N2CCN(CC(O)CN(C)C)CC2)nc2ccccc12 (centres undefined)

System: AGS
Assay: Antiproliferative activity against human AGS cells incubated for 72 hrs by MTT assay
Type: functional, cell-based
Details: not given

Row | IC50 [µM] | SMILES
10 | 5.46 | COc1ccc2c(c1)C(=O)c1c-2c(N2CCN(C(=O)CCN3CCNCC3)CC2)nc2ccccc12
11 | 4.94 | COc1ccc2c(c1)C(=O)c1c-2c(N2CCN(C(=O)CCNCCN(C)C)CC2)nc2ccccc12
12 | 18.6 | COc1ccc2c(c1)/C(=N\OCC(O)CN(C)C)c1c-2c(N2CCN(CC(O)CN(C)C)CC2)nc2ccccc12 (centres undefined)

System: NCI-H1299
Assay: Antiproliferative activity against human H1299 cells incubated for 72 hrs by MTT assay
Type: functional, cell-based
Details: NCI-H1299, 72 h

Row | IC50 [µM] | SMILES
13 | 5.87 | COc1ccc2c(c1)C(=O)c1c-2c(N2CCN(C(=O)CCN3CCNCC3)CC2)nc2ccccc12
14 | 5.65 | COc1ccc2c(c1)C(=O)c1c-2c(N2CCN(C(=O)CCNCCN(C)C)CC2)nc2ccccc12
15 | 0.68 | COc1ccc2c(c1)/C(=N\OCC(O)CN(C)C)c1c-2c(N2CCN(CC(O)CN(C)C)CC2)nc2ccccc12 (centres undefined)

System: not listed separately
Assay: Antiproliferative activity against human SKHep cells incubated for 72 hrs by MTT assay
Type: functional, cell-based
Details: not given

Row | SMILES | IC50 [µM]
16 | COc1ccc2c(c1)C(=O)c1c-2c(N2CCN(C(=O)CCN3CCNCC3)CC2)nc2ccccc12 | 4.93
17 | COc1ccc2c(c1)C(=O)c1c-2c(N2CCN(C(=O)CCNCCN(C)C)CC2)nc2ccccc12 | 5.08
18 | COc1ccc2c(c1)/C(=N\OCC(O)CN(C)C)c1c-2c(N2CCN(CC(O)CN(C)C)CC2)nc2ccccc12 (centres undefined) | 2.46

System: MDA-MB-231
Assay: Antiproliferative activity against human MDA-MB-231 cells incubated for 72 hrs by MTT assay
Type: functional, cell-based
Details: MDA-MB-231, 72 h

Row | IC50 [µM] | SMILES
19 | 6.26 | COc1ccc2c(c1)C(=O)c1c-2c(N2CCN(C(=O)CCN3CCNCC3)CC2)nc2ccccc12
20 | 7.44 | COc1ccc2c(c1)C(=O)c1c-2c(N2CCN(C(=O)CCNCCN(C)C)CC2)nc2ccccc12
21 | 0.7 | COc1ccc2c(c1)/C(=N\OCC(O)CN(C)C)c1c-2c(N2CCN(CC(O)CN(C)C)CC2)nc2ccccc12 (centres undefined)

System: SAS
Assay: Antiproliferative activity against human SAS cells incubated for 72 hrs by MTT assay
Type: functional, cell-based
Details: not given

Row | SMILES | IC50 [µM]
22 | COc1ccc2c(c1)C(=O)c1c-2c(N2CCN(C(=O)CCN3CCNCC3)CC2)nc2ccccc12 | 7.7
23 | COc1ccc2c(c1)C(=O)c1c-2c(N2CCN(C(=O)CCNCCN(C)C)CC2)nc2ccccc12 | 8.8
24 | COc1ccc2c(c1)/C(=N\OCC(O)CN(C)C)c1c-2c(N2CCN(CC(O)CN(C)C)CC2)nc2ccccc12 (centres undefined) | 9
